Our source for the EC50 values is ChEMBL document CHEMBL2424640, “Dihydrothiazolopyridone derivatives as a novel family of positive allosteric modulators of the metabotropic glutamate 5 (mGlu5) receptor” (J Med Chem, 2013).

The target of experiment [1] is Metabotropic glutamate receptor 3 (Homo sapiens, UniProt Q14832).
Description: Positive allosteric modulation of human mGlu3 receptor expressed in HEK293 cells by fluorescent Ca2+ assay
For experiment [2], the target named is Metabotropic glutamate receptor 2 (Homo sapiens, UniProt Q14416).
Description: Positive allosteric modulation of human mGlu2 receptor expressed in HEK293 cells by fluorescent Ca2+ assay
The target in experiment [3] is Metabotropic glutamate receptor 6 (Rattus norvegicus, UniProt P35349).
Description: Positive allosteric modulation of rat mGlu6 receptor expressed in CHO cells by [35S]-GTPgammaS binding assay
Experiment [4] addresses Metabotropic glutamate receptor 1 (Homo sapiens, UniProt Q13255).
Description: Positive allosteric modulation of human mGlu1 receptor expressed in HEK293 cells by fluorescent Ca2+ assay
For experiment [5], the target named is Metabotropic glutamate receptor 7 (Homo sapiens, UniProt Q14831).
Description: Positive allosteric modulation of human mGlu7 receptor expressed in HEK293 cells by fluorescent Ca2+ assay
Experiment [6] has as its target Metabotropic glutamate receptor 8 (Homo sapiens, UniProt O00222).
Description: Positive allosteric modulation of human mGlu8 receptor expressed in HEK293 cells by fluorescent Ca2+ assay
The target of experiment [7] is Metabotropic glutamate receptor 5 (Homo sapiens, UniProt P41594).
Description: Positive allosteric modulation of human mGluR5a transfected in HEK293 cells by calcium mobilization assay
The target in experiment [8] is Metabotropic glutamate receptor 4 (Homo sapiens, UniProt Q14833).
Description: Positive allosteric modulation of human mGlu4 receptor expressed in HEK293 cells by fluorescent Ca2+ assay

Sequence of Metabotropic glutamate receptor 6 (P35349 whole entry): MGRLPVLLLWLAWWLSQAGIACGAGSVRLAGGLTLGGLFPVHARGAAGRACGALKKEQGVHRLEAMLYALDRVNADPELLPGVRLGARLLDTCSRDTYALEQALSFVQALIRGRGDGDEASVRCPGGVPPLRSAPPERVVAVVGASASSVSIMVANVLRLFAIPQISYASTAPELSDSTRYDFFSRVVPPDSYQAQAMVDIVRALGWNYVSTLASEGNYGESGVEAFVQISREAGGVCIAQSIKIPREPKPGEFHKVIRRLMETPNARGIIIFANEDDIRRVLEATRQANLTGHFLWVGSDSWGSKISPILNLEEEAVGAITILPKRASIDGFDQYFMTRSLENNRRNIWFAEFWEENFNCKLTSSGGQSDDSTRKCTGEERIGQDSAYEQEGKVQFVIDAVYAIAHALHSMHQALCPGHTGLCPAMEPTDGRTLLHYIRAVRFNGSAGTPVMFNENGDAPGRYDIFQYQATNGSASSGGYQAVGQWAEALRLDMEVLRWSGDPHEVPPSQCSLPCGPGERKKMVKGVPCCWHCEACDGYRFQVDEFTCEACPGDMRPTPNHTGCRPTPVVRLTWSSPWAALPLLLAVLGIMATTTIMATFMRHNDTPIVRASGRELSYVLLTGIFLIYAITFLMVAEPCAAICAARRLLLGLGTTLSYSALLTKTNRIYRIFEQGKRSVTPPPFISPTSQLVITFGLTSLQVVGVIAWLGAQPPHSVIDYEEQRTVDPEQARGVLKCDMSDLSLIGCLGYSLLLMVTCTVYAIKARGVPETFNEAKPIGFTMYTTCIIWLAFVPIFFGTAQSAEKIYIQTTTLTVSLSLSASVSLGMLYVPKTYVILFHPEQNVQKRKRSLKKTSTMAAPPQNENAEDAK
Sequence of Metabotropic glutamate receptor 5 (P41594 whole entry): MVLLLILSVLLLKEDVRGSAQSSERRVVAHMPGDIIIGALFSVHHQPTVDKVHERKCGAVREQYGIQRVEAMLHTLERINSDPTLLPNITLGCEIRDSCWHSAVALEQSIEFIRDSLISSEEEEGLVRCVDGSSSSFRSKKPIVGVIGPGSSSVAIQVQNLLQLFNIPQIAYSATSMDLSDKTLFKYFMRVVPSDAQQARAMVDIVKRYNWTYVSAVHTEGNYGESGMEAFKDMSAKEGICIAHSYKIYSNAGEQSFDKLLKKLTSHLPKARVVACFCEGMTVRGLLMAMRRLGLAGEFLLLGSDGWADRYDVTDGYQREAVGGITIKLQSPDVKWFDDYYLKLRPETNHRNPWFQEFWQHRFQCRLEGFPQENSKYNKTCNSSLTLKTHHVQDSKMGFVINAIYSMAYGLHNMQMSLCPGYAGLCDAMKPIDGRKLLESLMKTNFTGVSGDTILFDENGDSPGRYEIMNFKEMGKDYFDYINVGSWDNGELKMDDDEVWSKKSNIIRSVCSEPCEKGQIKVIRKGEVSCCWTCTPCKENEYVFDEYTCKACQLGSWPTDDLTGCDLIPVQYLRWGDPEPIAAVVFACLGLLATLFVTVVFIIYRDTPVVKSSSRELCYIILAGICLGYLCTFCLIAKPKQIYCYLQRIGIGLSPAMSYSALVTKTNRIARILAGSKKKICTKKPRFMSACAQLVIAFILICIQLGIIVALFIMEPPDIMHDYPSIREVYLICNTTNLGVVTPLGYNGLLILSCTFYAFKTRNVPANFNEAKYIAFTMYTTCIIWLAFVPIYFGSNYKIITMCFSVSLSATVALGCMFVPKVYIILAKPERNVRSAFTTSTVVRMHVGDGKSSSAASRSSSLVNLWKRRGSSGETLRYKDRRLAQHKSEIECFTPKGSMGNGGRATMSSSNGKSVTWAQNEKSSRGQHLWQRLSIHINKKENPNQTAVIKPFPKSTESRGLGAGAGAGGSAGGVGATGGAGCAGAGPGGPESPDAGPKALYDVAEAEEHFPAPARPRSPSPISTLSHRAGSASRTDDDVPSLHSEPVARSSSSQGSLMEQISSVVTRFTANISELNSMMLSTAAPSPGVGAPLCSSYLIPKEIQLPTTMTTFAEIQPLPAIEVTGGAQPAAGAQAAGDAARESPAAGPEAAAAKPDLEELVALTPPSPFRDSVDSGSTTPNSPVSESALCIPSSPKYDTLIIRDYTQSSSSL
Sequence of Metabotropic glutamate receptor 8 (O00222 whole entry): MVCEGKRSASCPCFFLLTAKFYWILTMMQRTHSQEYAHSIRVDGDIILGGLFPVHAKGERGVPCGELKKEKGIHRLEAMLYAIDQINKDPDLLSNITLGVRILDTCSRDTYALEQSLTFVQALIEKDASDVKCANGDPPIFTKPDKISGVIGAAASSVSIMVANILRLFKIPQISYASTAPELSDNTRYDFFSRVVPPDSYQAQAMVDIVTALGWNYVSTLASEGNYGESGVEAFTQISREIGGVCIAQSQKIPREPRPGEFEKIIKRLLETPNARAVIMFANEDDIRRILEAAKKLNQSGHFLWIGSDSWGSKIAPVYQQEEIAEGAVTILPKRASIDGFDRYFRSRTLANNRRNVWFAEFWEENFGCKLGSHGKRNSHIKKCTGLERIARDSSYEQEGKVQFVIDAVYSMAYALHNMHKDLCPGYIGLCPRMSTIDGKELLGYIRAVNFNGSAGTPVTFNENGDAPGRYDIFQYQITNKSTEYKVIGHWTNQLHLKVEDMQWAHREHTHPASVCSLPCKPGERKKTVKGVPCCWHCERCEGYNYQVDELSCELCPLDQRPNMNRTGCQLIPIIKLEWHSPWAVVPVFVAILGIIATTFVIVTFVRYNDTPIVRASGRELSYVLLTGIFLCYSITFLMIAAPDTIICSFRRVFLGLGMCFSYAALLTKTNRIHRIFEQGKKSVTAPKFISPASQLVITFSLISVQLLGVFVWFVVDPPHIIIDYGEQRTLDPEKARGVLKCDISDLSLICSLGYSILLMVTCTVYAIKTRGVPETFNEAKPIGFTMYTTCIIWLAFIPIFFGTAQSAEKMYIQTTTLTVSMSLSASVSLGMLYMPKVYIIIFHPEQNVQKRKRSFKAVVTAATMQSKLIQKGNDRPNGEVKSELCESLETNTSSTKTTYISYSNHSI
Sequence of Metabotropic glutamate receptor 1 (Q13255 whole entry): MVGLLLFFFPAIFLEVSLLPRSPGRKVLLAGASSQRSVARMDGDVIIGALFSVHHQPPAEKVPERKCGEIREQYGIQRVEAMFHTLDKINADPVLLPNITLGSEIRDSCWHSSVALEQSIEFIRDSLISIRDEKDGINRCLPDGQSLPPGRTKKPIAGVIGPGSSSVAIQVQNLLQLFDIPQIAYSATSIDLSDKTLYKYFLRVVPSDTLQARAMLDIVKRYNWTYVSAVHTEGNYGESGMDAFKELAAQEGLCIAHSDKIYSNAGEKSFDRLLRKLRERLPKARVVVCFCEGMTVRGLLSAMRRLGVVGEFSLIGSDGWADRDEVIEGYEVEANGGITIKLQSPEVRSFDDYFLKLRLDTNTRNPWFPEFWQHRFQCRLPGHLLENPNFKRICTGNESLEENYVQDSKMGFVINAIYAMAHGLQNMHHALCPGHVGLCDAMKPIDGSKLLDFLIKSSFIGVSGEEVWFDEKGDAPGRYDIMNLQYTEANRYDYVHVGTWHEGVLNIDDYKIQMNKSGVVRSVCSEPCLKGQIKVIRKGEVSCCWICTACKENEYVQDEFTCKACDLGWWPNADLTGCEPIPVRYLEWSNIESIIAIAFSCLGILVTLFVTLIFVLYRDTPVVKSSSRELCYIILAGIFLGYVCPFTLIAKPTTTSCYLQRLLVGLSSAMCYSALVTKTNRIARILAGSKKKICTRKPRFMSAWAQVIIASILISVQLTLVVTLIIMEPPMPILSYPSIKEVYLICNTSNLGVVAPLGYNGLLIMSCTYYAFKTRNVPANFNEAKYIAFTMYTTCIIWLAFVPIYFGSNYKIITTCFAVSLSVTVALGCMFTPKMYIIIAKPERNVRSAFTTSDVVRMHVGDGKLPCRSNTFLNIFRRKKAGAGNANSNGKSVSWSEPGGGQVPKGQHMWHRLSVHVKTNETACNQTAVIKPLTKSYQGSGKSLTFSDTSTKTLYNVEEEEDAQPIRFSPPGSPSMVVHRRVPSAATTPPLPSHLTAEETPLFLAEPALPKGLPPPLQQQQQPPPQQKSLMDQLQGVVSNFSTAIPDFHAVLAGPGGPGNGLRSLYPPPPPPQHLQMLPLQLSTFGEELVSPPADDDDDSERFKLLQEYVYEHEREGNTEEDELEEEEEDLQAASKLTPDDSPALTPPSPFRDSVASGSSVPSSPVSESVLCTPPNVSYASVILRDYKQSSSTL
Sequence of Metabotropic glutamate receptor 2 (Q14416 whole entry): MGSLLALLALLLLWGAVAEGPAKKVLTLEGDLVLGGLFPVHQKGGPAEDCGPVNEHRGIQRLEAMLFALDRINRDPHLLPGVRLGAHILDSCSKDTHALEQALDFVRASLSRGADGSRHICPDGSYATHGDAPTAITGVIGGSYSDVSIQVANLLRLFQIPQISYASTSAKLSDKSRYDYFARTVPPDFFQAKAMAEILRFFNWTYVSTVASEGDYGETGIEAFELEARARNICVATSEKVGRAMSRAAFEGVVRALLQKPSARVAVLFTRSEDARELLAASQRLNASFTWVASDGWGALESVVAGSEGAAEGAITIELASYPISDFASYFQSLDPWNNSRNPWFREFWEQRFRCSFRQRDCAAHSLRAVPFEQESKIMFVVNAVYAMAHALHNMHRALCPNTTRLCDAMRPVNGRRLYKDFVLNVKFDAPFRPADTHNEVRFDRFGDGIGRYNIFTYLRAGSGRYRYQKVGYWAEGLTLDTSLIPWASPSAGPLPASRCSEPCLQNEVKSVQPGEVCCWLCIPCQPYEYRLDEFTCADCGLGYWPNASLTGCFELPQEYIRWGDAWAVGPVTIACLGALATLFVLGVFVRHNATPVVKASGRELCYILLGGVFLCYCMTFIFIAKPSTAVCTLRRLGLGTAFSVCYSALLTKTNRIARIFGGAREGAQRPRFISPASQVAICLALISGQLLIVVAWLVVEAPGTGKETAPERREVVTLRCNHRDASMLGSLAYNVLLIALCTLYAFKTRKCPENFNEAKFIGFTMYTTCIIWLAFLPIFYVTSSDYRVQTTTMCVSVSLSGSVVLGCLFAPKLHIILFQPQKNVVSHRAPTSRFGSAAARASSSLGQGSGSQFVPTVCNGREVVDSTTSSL

For `O=C1CCOc2cc(OCc3ccccc3)ccc21`, the EC50 in experiment [1], in experiment [2], in experiment [3], in experiment [4], in experiment [5] and in experiment [6] was greater than 10 µM in each case. In the case of `O=C1CCOc2cc(COc3ccccc3)ccc21`, the EC50 in experiment [1], in experiment [2], in experiment [3], in experiment [4], in experiment [5] and in experiment [6] was greater than 10 µM each time. `O=C1NCCc2nc(C#Cc3ccccc3)sc21`: the EC50 (in general, the midpoint of the concentration-response curve) in experiment [7] came to 123 nM.

With `CN1CCc2nc(C#Cc3ccccc3)sc2C1=O`, in experiment [7], the EC50 was 193 nM. In experiment [7], `O=C1CCc2cc(O)ccc2O1` displayed an EC50 greater than 10000 nM. In experiment [7], `O=C1c2sc(COc3ccccc3)nc2CCN1CC1CC1` returned an EC50 of 250 nM. In turn, `O=C1c2sc(COc3ccccc3)nc2CCN1CC1CCOCC1` showed an EC50 in experiment [7] of 851 nM. For the compound `O=C1c2sc(COc3ccccc3)nc2CCN1c1ccc(F)cc1`, in experiment [7], the response was half-maximal at 96 nM (EC50). The same measure, in the same setting: the figure for `O=C1c2sc(COc3ccccc3)nc2CCN1c1ccc(F)cc1F` is 66 nM; for `O=C1c2sc(COc3ccccc3F)nc2CCN1c1ccc(F)cc1` it is 553 nM.

`O=C1c2sc(COc3cccc(F)c3)nc2CCN1c1ccc(F)cc1` registered an EC50 in experiment [7] of 77 nM. This EC50 lies about 7.2-fold lower than the previous one. `O=C1c2sc(COc3ccc(F)cc3)nc2CCN1c1ccc(F)cc1` yielded an EC50 in experiment [7] of 739 nM. In experiment [7], `O=C1c2sc(COc3ccccc3)nc2CCN1c1ccccn1` yielded an EC50 of 1020 nM.

For `O=C1c2sc(COc3ccccc3)nc2CCN1c1cccnc1`, in experiment [7], the EC50 turned out to be 1760 nM.

In experiment [7], `O=C1c2sc(COc3ccccc3)nc2CCN1c1ccc(F)cn1` displayed an EC50 of 621 nM. `O=C1c2sc(COc3ccccc3)nc2CCN1c1ncccc1F`: the EC50 in experiment [7] came to 791 nM. The compound `COCCN1CCc2nc(C#Cc3ccccc3)sc2C1=O` displayed an EC50 in experiment [7] of 119 nM. Take `CN1CCc2nc(OCc3ccccc3)sc2C1=O`: in experiment [7], the EC50 was determined as 1750 nM. For the compound `O=C1c2sc(OCc3ccccc3)nc2CCN1c1ccc(F)cc1`, the EC50 in experiment [7] came out at 1130 nM. For `CC(C)N1CCc2nc(COc3ccccc3)sc2C1=O`, the EC50 in experiment [7] was 1210 nM. Take `COCCN1CCc2nc(COc3ccccc3)sc2C1=O`: in experiment [7], the EC50 amounted to 2310 nM.

Take `O=C1c2sc(COc3ccccc3)nc2CCN1C1CC1`: the EC50 in experiment [7] was 1460 nM.

With `O=C1CCCc2nc(C#Cc3ccccc3)sc21`, the EC50 is greater than 10 µM in experiment [1]; 33 nM in experiment [7]; greater than 10 µM in experiment [2]; greater than 10 µM in experiment [3]; greater than 10 µM in experiment [8]; greater than 10 µM in experiment [4]. In addition, the EC50 in experiment [5] and in experiment [6] was greater than 10 µM in each case. In turn, `O=C(c1ccc(F)cc1)N1CCC[C@H](c2nc(-c3ccc(F)cc3)no2)C1` displayed an EC50 in experiment [7] of 199 nM.

`O=C(O)c1ccccc1` [BENZOIC ACID] yielded an EC50 in experiment [7] greater than 10000 nM.
